Experimental data: BindingDB's records for doi:10.1021/acs.jnatprod.9b00648 (Seoul National University, 2019)

Assay: Inhibition of VEGFR2 in HUVEC assessed as inhibition of VEGF-induced tube formation incubated for 8 hrs by inverted microscopic method

## C/C=C(\C)C(=O)O[C@@H]1C2=C(C)C(=O)N[C@]2(O)C[C@@]2(C)O[C@@H]2CC[C@@]2(C)O[C@H]12
  IC50: 40.4 µM
